# Test results reported in PubChem BioAssay (NCI).
#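 Interpolation was linear, between the two tested concentrations surrounding the appropriate level; five concentrations were tested over 48 hours in 96-well plates. TGI: concentration producing complete growth inhibition.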
# Columns and labels:
# Experiment in all cases: inhibition of tumour cell growth, NCI panel, 48 h
# SK-MEL-28 melanoma = tested on: SK-MEL-28 melanoma
# HCT-15 colon = tested on: HCT-15 colon
# NCI-H23 lung = tested on: NCI-H23 lung
# NCI-H522 lung = tested on: NCI-H522 lung
# ACHN renal = tested on: ACHN renal
# SK-OV-3 ovarian = tested on: SK-OV-3 ovarian
# HOP-92 NSCLC = tested on: HOP-92 NSCLC
# CAKI-1 renal = tested on: CAKI-1 renal
# SNB-75 CNS = tested on: SNB-75 CNS
# SN12C renal = tested on: SN12C renal
# EKVX NSCLC = tested on: EKVX NSCLC
# LOX IMVI melanoma = tested on: LOX IMVI melanoma
# HT29 colon = tested on: HT29 colon
# SF-268 CNS = tested on: SF-268 CNS
# PC-3 prostate = tested on: PC-3 prostate
# HCC-2998 colon = tested on: HCC-2998 colon
# TK-10 renal = tested on: TK-10 renal
# KM12 colon = tested on: KM12 colon
# NCI-H226 lung = tested on: NCI-H226 lung
# OVCAR-3 ovarian = tested on: OVCAR-3 ovarian
# OVCAR-5 ovarian = tested on: OVCAR-5 ovarian
# UO-31 renal = tested on: UO-31 renal
# MDA-N = tested on: MDA-N
# T-47D breast = tested on: T-47D breast
# SNB-19 CNS = tested on: SNB-19 CNS
# OVCAR-4 ovarian = tested on: OVCAR-4 ovarian
# HCT-116 colon = tested on: HCT-116 colon
# HS 578T breast = tested on: HS 578T breast
# MDA-MB-231 breast = tested on: MDA-MB-231 breast
# HL-60(TB) leukemia = tested on: HL-60(TB) leukemia
# SK-MEL-5 melanoma = tested on: SK-MEL-5 melanoma
# 786-0 renal = tested on: 786-0 renal
# RPMI-8226 leukemia = tested on: RPMI-8226 leukemia
# SF-539 CNS = tested on: SF-539 CNS
# SR leukemia = tested on: SR leukemia
# MCF7 breast = tested on: MCF7 breast
# COLO 205 colon = tested on: COLO 205 colon
# M14 melanoma = tested on: M14 melanoma
# SW-620 colon = tested on: SW-620 colon
# SF-295 CNS = tested on: SF-295 CNS
# A498 renal = tested on: A498 renal
# U251 CNS = tested on: U251 CNS
# IGROV1 ovarian = tested on: IGROV1 ovarian
# K-562 leukemia = tested on: K-562 leukemia
# NCI-H460 lung = tested on: NCI-H460 lung
# MOLT-4 leukemia = tested on: MOLT-4 leukemia
# MDA-MB-435 = tested on: MDA-MB-435
# NCI/ADR-RES ovarian = tested on: NCI/ADR-RES ovarian
# SK-MEL-2 melanoma = tested on: SK-MEL-2 melanoma
# OVCAR-8 ovarian = tested on: OVCAR-8 ovarian
# CCRF-CEM leukemia = tested on: CCRF-CEM leukemia
# HOP-62 NSCLC = tested on: HOP-62 NSCLC
# A549 NSCLC = tested on: A549 NSCLC
# UACC-257 melanoma = tested on: UACC-257 melanoma
smiles,measurement,setting,value
O=S(=O)(N=[Se](=O)(c1ccccc1)c1ccccc1)c1ccccc1,TGI,SK-MEL-28 melanoma,> 100 µM
same,TGI,HCT-15 colon,> 100 µM
same,TGI,NCI-H23 lung,> 100 µM
same,TGI,NCI-H522 lung,> 100 µM
same,TGI,ACHN renal,> 100 µM
same,TGI,SK-OV-3 ovarian,> 100 µM
same,TGI,HOP-92 NSCLC,> 100 µM
same,TGI,CAKI-1 renal,> 100 µM
same,TGI,SNB-75 CNS,> 100 µM
same,TGI,SN12C renal,> 100 µM
same,TGI,EKVX NSCLC,> 100 µM
same,TGI,LOX IMVI melanoma,> 100 µM
same,TGI,HT29 colon,> 100 µM
same,TGI,SF-268 CNS,> 100 µM
same,TGI,PC-3 prostate,> 100 µM
same,TGI,HCC-2998 colon,> 100 µM
same,TGI,TK-10 renal,> 100 µM
same,TGI,KM12 colon,> 100 µM
same,TGI,NCI-H226 lung,> 100 µM
same,TGI,OVCAR-3 ovarian,> 100 µM
same,TGI,OVCAR-5 ovarian,> 100 µM
same,TGI,UO-31 renal,> 100 µM
same,TGI,MDA-N,> 100 µM
same,TGI,T-47D breast,> 100 µM
same,TGI,SNB-19 CNS,> 100 µM
same,TGI,OVCAR-4 ovarian,> 100 µM
same,TGI,HCT-116 colon,> 100 µM
same,TGI,HS 578T breast,> 100 µM
same,TGI,MDA-MB-231 breast,> 100 µM
same,TGI,HL-60(TB) leukemia,88.1 µM
same,TGI,SK-MEL-5 melanoma,> 100 µM
same,TGI,786-0 renal,> 100 µM
same,TGI,RPMI-8226 leukemia,> 100 µM
same,TGI,SF-539 CNS,> 100 µM
same,TGI,SR leukemia,> 100 µM
same,TGI,MCF7 breast,> 100 µM
same,TGI,COLO 205 colon,> 100 µM
same,TGI,M14 melanoma,> 100 µM
same,TGI,SW-620 colon,> 100 µM
same,TGI,SF-295 CNS,> 100 µM
same,TGI,A498 renal,> 100 µM
same,TGI,U251 CNS,> 100 µM
same,TGI,IGROV1 ovarian,> 100 µM
same,TGI,K-562 leukemia,> 100 µM
same,TGI,NCI-H460 lung,> 100 µM
same,TGI,MOLT-4 leukemia,> 100 µM
same,TGI,MDA-MB-435,> 100 µM
same,TGI,NCI/ADR-RES ovarian,> 100 µM
same,TGI,SK-MEL-2 melanoma,> 100 µM
same,TGI,OVCAR-8 ovarian,> 100 µM
same,TGI,CCRF-CEM leukemia,> 100 µM
same,TGI,HOP-62 NSCLC,> 100 µM
CN(C)C12C=CC=CC3=C(c4ccccc4)C(c4ccccc4)=C(c4ccccc4)C31c1ccccc1C2 (stereo not drawn),TGI,SK-MEL-28 melanoma,> 100 µM
same,TGI,HCT-15 colon,> 100 µM
same,TGI,NCI-H522 lung,> 100 µM
same,TGI,A549 NSCLC,> 100 µM
same,TGI,ACHN renal,> 100 µM
same,TGI,SK-OV-3 ovarian,> 100 µM
same,TGI,SNB-75 CNS,> 100 µM
same,TGI,SN12C renal,> 100 µM
same,TGI,EKVX NSCLC,> 100 µM
same,TGI,HT29 colon,> 100 µM
same,TGI,SF-268 CNS,> 100 µM
same,TGI,PC-3 prostate,> 100 µM
same,TGI,HCC-2998 colon,> 100 µM
same,TGI,TK-10 renal,> 100 µM
same,TGI,KM12 colon,> 100 µM
same,TGI,OVCAR-5 ovarian,> 100 µM
same,TGI,UACC-257 melanoma,> 100 µM
same,TGI,UO-31 renal,> 100 µM
same,TGI,MDA-N,> 100 µM
same,TGI,T-47D breast,> 100 µM
same,TGI,SNB-19 CNS,> 100 µM
same,TGI,OVCAR-4 ovarian,> 100 µM
same,TGI,HCT-116 colon,> 100 µM
same,TGI,HS 578T breast,> 100 µM
same,TGI,MDA-MB-231 breast,> 100 µM
same,TGI,HL-60(TB) leukemia,> 100 µM
same,TGI,SK-MEL-5 melanoma,> 100 µM
same,TGI,786-0 renal,> 100 µM
same,TGI,RPMI-8226 leukemia,> 100 µM
same,TGI,SF-539 CNS,> 100 µM
same,TGI,SR leukemia,> 100 µM
same,TGI,MCF7 breast,> 100 µM
same,TGI,COLO 205 colon,> 100 µM
same,TGI,M14 melanoma,> 100 µM
same,TGI,SW-620 colon,> 100 µM
same,TGI,SF-295 CNS,> 100 µM
same,TGI,U251 CNS,> 100 µM
same,TGI,IGROV1 ovarian,> 100 µM
same,TGI,K-562 leukemia,> 100 µM
same,TGI,NCI-H460 lung,> 100 µM
same,TGI,MOLT-4 leukemia,> 100 µM
same,TGI,MDA-MB-435,> 100 µM
same,TGI,NCI/ADR-RES ovarian,> 100 µM
same,TGI,OVCAR-8 ovarian,> 100 µM
same,TGI,CCRF-CEM leukemia,> 100 µM
same,TGI,HOP-62 NSCLC,> 100 µM
